In patent US12570675B2, “Boronic acid compounds” (LG CHEM, LTD., priority 2020, dated 2026) one finds IC50 data, which are given here for 15 molecules.

Molecules are shown by their SMILES.

In assay [1] the target is Proteasome caspase-like activity (S26 protein from RPMI8226 cells) (Homo sapiens (Human), UniProt P28072). In words: Proteasome caspase-like activity inhibition (Z-Leu-Leu-Glu-AMC fluorogenic substrate, RPMI8226 cell extract). In kind it is biochemical. Particulars: S26 protein from RPMI8226 cell extract 2 ug/well, substrate 20 uM, 37° C., 90 minutes. The method in brief: (§1)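 RPMI8226 myeloma cell lysate (S26 fraction, 20 mM Tris-HCl pH 8.0; 2 ug/well) incubated with compound serially diluted from 10 uM (0.5% DMSO) and 20 uM Suc-LLVY-AMC (chymotrypsin-like) or Z-LLE-AMC (caspase-like) for 90 min at 37 °C. Fluorescence read; IC50 from % of uninhibited signal.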

Assay [2] has as its target Proteasome chymotrypsin-like activity (S26 protein from RPMI8226 cells) (Homo sapiens, UniProt P28074). In kind it is biochemical. The conditions noted are these: S26 protein from RPMI8226 cell extract 2 ug/well, substrate 20 uM, 37° C., 90 minutes; read-out: Proteasome chymotrypsin-like activity inhibition IC50. The method in brief: as §1

Chain of Proteasome chymotrypsin-like activity (S26 protein from RPMI8226 cells) (P28074 60-263 limits assumed): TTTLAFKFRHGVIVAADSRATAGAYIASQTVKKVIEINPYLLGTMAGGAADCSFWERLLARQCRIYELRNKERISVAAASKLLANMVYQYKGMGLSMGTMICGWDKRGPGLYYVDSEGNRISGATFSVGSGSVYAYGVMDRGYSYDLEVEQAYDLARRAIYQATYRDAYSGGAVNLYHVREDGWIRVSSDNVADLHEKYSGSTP
Chain of Proteasome caspase-like activity (S26 protein from RPMI8226 cells) (P28072 whole entry): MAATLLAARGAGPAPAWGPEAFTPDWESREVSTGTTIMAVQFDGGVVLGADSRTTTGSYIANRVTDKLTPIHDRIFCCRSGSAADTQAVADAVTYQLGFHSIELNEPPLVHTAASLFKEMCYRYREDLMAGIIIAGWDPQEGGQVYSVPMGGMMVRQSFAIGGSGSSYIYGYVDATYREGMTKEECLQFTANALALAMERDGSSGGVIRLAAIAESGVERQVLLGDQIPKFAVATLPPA

As usually defined, the IC50 is the concentration that gives 50% inhibition. For the molecule `Cc1cc(C(=O)NCC2=NOC(Cc3ccccc3)(C(=O)N[C@@H](CC(C)C)B(O)O)C2)n(-c2ccc(F)cc2)n1` (stereo partly drawn) [Example 247, ((1R)-1-(5-benzyl-3-((1-(4-fluorophenyl)-3-methyl-1H-pyrazol-5-carboxamido)methyl)-4,5-dihydroisoxazol-5-carboxamido)-3-methylbutyl)boronic acid], the IC50 in assay [1] was more than 1000 nM; in assay [2], less than 10 nM.

For the molecule `CC(C)C[C@H](NC(=O)C1(CCc2ccccc2)CC(CNC(=O)c2nccc3ccccc23)=NO1)B(O)O` (stereo partly drawn) [Example 162, ((1R)-1-(3-((isoquinolin-1-carboxamido)methyl)-5-penetyl-4,5-dihydroisoxazol-5-carboxamido)-3-methylbutyl)boronic acid], the IC50 in assay [1] was more than 1000 nM; in assay [2] it was less than 25 nM.

Consider `CC(C)C[C@H](NC(=O)C1(Cc2ccccc2)CC(CNC(=O)c2cccc3c2cnn3C)=NO1)B(O)O` (stereo partly drawn) [Example 204, ((1R)-1-(5-benzyl-3-((1-methyl-1H-indazol-4-carboxamido)methyl)-4,5-dihydroisoxazol-5-carboxamido)-3-methylbutyl)boronic acid], for which the IC50 in assay [1] is more than 500 nM; in assay [2] it was less than 10 nM.

`CC(C)C[C@H](NC(=O)C1(Cc2ccccc2)CC(CNC(=O)c2nn(C)c3ccccc23)=NO1)B(O)O` (stereo partly drawn) [Example 201, ((1R)-1-(5-benzyl-3-((1-methyl-1H-indazol-3-carboxamido)methyl)-4,5-dihydroisoxazol-5-carboxamido)-3-methylbutyl)boronic acid]: the results for the half-maximal inhibitory concentration (IC50) in assay [1] and in assay [2] were more than 250 nM and less than 10 nM, respectively.

In the case of `COc1cccc(CC2(C(=O)N[C@@H](CC(C)C)B(O)O)CC(CNC(=O)c3nccc4ccccc34)=NO2)c1` (stereo partly drawn) [Example 100, ((1R)-1-(3-((isoquinolin-1-carboxamido)methyl)-5-(3-methoxybenzyl)-4,5-dihydroisoxazol-5-carboxamido)-3-methylbutyl)boronic acid], the figures for the IC50 in assay [1] and in assay [2] were more than 1000 nM and less than 10 nM, respectively.

With `CC(C)C[C@H](NC(=O)C1(Cc2ccc(F)cc2F)CC(CNC(=O)c2nccc3ccccc23)=NO1)B(O)O` (stereo partly drawn) [Example 178, ((1R)-1-(5-(2,4-difluorobenzyl)-3-((isoquinolin-1-carboxamido)methyl)-4,5-dihydroisoxazol-5-carboxamido)-3-methylbutyl)boronic acid], the results for the IC50 in assay [1] and in assay [2] were more than 1000 nM and less than 10 nM, respectively.

As to `CC(C)C[C@H](NC(=O)C1(Cc2ccccc2)CC(CNC(=O)c2cccc3c2CCCC3)=NO1)B(O)O` (stereo partly drawn) [Example 115, ((1R)-1-(5-benzyl-3-((5,6,7,8-tetrahydronaphthalen-1-carboxamido)methyl)-4,5-dihydroisoxazol-5-carboxamido)-3-methylbutyl)boronic acid], the IC50 in assay [1] is more than 1000 nM; in assay [2], less than 10 nM.

For `CC(C)C[C@H](NC(=O)C1(Cc2ccccc2)CC([C@@H](NC(=O)c2nccc3ccccc23)C(C)C)=NO1)B(O)O` (stereo partly drawn) [Example 148, ((1R)-1-(5-benzyl-3-((S)-1-(isoquinolin-1-carboxamido)-2-methylpropyl)-4,5-dihydroisoxazol-5-carboxamido)-3-methylbutyl)boronic acid], the IC50 in assay [1] is more than 1000 nM; in assay [2] it was less than 25 nM.

On to `CC(C)C[C@H](NC(=O)C1(Cc2ccccc2)CC(CNC(=O)c2ccnc3c2ccn3C(C)C)=NO1)B(O)O` (stereo partly drawn) [Example 211, ((1R)-1-(5-benzyl-3-((1-isopropyl-1H-pyrrolo[2,3-b]pyridin-4-carboxamido)methyl)-4,5-dihydroisoxazol-5-carboxamido)-3-methylbutyl)boronic acid], for which the concentration for half-maximal inhibition (IC50) is more than 500 nM in assay [1] and less than 10 nM in assay [2].

Consider `CC(C)C[C@H](NC(=O)C1(Cc2ccccc2)CC(CNC(=O)c2ccccc2)=NO1)B(O)O` (stereo partly drawn) [Example 291], for which the IC50 in assay [1] is more than 250 nM; in assay [2] it was less than 10 nM.

Take `CC(C)C[C@H](NC(=O)C1(Cc2ccccc2)CC([C@H](CC(C)C)NC(=O)c2nccc3ccccc23)=NO1)B(O)O` (stereo partly drawn) [Example 152, ((1R)-1-(5-benzyl-3-((S)-1-(isoquinolin-1-carboxamido)-3-methylbutyl)-4,5-dihydroisoxazol-5-carboxamido)-3-methylbutyl)boronic acid]: the IC50 in assay [1] is more than 1000 nM; in assay [2], less than 10 nM.

`CC(C)C[C@H](NC(=O)C1(Cc2ccccc2)CC(CNC(=O)c2n[nH]c3ccccc23)=NO1)B(O)O` (stereo partly drawn) [Example 200, ((1R)-1-(3-((1H-indazol-3-carboxamido)methyl)-5-benzyl-4,5-dihydroisoxazol-5-carboxamido)-3-methylbutyl)boronic acid]: the IC50 in assay [1] was more than 100 nM; in assay [2], less than 10 nM.

Take `CC(C)C[C@H](NC(=O)C1(C)CC(CNC(=O)c2cc(Cl)ccc2Cl)=NO1)B(O)O` (stereo partly drawn) [Example 86, ((1R)-1-(3-((2,5-dichlorobenzamido)methyl)-5-methyl-4,5-dihydroisoxazol-5-carboxamido)-3-methylbutyl)boronic acid]: the IC50 is more than 2500 nM in assay [1] and less than 50 nM in assay [2].

Take `CC(C)C[C@H](NC(=O)C1(Cc2ccccc2)CC(CNC(=O)c2cccc(C(F)(F)F)n2)=NO1)B(O)O` (stereo partly drawn) [Example 186, ((1R)-1-(5-benzyl-3-((6-(trifluoromethyl)picolinamido)methyl)-4,5-dihydroisoxazol-5-carboxamido)-3-methylbutyl)boronic acid]: the figures for the IC50 in assay [1] and in assay [2] were more than 1000 nM and less than 10 nM, respectively.

For `Cc1cnc(COCC2=NOC(Cc3ccccc3)(C(=O)N[C@@H](CC(C)C)B(O)O)C2)cn1` (stereo partly drawn) [Example 48, ((1R)-1-(5-benzyl-3-(((5-methylpyrazin-2-yl)methoxy)methyl)-4,5-dihydroisoxazol-5-carboxamido)-3-methylbutyl)boronic acid], the half-maximal inhibitory concentration (IC50) in assay [1] was more than 250 nM; in assay [2], less than 25 nM.
